Laboratory results taken from patent US11766060B2, “Compositions comprising mogrosides, steviol glycosides and glycosylated derivatives thereof and methods of enhancing the mouthfeel or sweetness of consumables” (Sweet Green Fields, LLC, priority 2016, dated 2023).

Experiments:
[1] = Evaluation of taste profile compared to reference sugar solutions by panel (Example 3 method); assay type: in vivo, human; conditions: inclusion of thaumatin
Method: I. The components where mixed and then dissolved in aqueous citric acid (pH 3.8) with ultrasound at room temperature and left to equilibrate for 30 minutes.
The sample solutions were evaluated by 8 panelists that have been previously qualified for their taste acuity. Samples coded with triple digit numbers were given to the panelist randomly. Panelists tasted the samples randomly. After tasting a sample, every panelist was required to rinse their mouth with water and rest for 60 seconds. For the sweetness evaluation of each sample, the sample was tested in pairs with several sugar solutions of given sweetness, such as 5%, 6%, 7%, 8%, 9%, or 10% as standard reference samples. The sweetness of each sample was compared with those of the reference sugar solutions, and the sweetness was evaluated and recorded according to the judgment that the sweetness of the sample was similar to a specific sugar solution or between specific sugar solutions. The results were recorded as the mean value of the results provided by the panels.
For evaluation of taste profile, the samples were tested and were compared to reference sugar solutions. Panelists judged if the taste profile of sample solutions were similar to that of sugar.

[2] = pure thaumatin; cited from earlier work
[3] = Evaluation of the sweetness detection threshold (8 panelists rate sweet / not sweet); assay type: in vivo, human; conditions: at a 1 ppm level
From the text: The phrase “sweetness detection threshold” refers to the minimum concentration at which panelists consisting of 8 persons are able to detect sweetness in a composition, liquid or solid. This is further defined as provided in the Examples herein.
Threshold of sweetness refers to a concentration of a material that below a concentration where sweetness can be detected may still impart a flavor to the consumable (including water). When half of a trained panel of testers determines something is “sweet” at a given concentration, then the sample meets the threshold. When less than half of a panel of testers cannot discern sweetness at a given concentration, then concentrations of the substance below the sweetness level are considered a flavoring.
To evaluate the sweetness potency of various concentrations of GMG or MGV in aqueous solutions, aqueous solutions of GMG and MGV at various concentrations were prepared and were evaluated at room temperature. The sample solutions were evaluated by 8 panelists that were previously qualified for their taste acuity. Samples coded with triple digit numbers were given to a panelist randomly. Panelists tasted the samples randomly. After tasting a sample, every panelist was required to wash their mouth with water and rest for 60 seconds. Panelists gave ratings of “sweet” or “not sweet” to each sample.

Question: What does the source list for thaumatin?
Answer: taste profile of MGV [1]: improved; sweetness threshold [2]: 7 ppm; sweetness imparted to a composition [3]: no sweetness
